These results are taken from patent US12005056B2, “Centrally-active ghrelin agonist and medical uses thereof” (Helsinn Healthcare SA, priority 2018, dated 2024).

For data set [1], the system named is oxaliplatin-treated Balb/C mice. As to conditions: oxaliplatin 6 mg/kg i.p. twice weekly for 4 weeks.
Data set [2] can be described thus: Comparative pharmacokinetics versus reference compounds, dog.
Data set [3] can be described thus: Comparative pharmacokinetics versus reference compounds, rat.
[4] abbreviates: Dog, IV, dosing level 1 mg/kg (level not given for Reference 2).
Where [5] appears, read: Dog, PO, dosing level 2 mg/kg (level not given for Reference 2).
[6] abbreviates: Rat, 2 hours after intravenous administration.
[7] abbreviates: Rat, IV, dosing level 3 mg/kg (level not given for Reference 2).
Setting [8] is: Rat, PO, dosing level 3 mg/kg (level not given for Reference 2).

For the molecule `O=C1[O][Pt]2([NH][C@@H]3CCCC[C@H]3[NH]2)[O]C1=O` [Oxaliplatin, reference compound], in data set [1], the “decrease in caudal NCV vs. vehicle-treated mice” value worked out at 8±1.1% and the “reduction in IENFD in the footpads vs. vehicle-treated mice” value was −31.7±3.5%. The “decrease in digital potential amplitude” value in data set [1] (not statistically significant) is 13.5+/−6.4%.
With `COc1ccc([C@H](C)NC(=O)N(O)C2CCN(C)CC2)c2ccccc12` [Reference 2], the “AUC (0-t)” value in data set [2] (setting [4]) is 14810.5 ng·h/mL; in data set [2] (setting [5]), 28288.2 ng·h/mL; in data set [3] (setting [7]), 8412.7 ng·h/mL; in data set [3] (setting [8]) it was 6139.8 ng·h/mL. The CLz/F in data set [2] (setting [4]) came out at 0.67 mL/min/kg; in data set [2] (setting [5]) it was 1 mL/min/kg; in data set [3] (setting [7]), 5 mL/min/kg; in data set [3] (setting [8]) it was 6.7 mL/min/kg. Also, the F in data set [2] (setting [5]) came to 95.5%; in data set [3] (setting [8]), 73.0%. The Cmax (as a rule, the peak of the concentration-time curve) in data set [2] (dog, in vivo, iv, 1 mg/kg) worked out at 1520 ng/mL; in data set [2] (dog, in vivo, po, 2 mg/kg) it was 2040 ng/mL; in data set [3] (rat, plasma, iv, 3 mg/kg), 1220 ng/mL; in data set [3] (rat, plasma, po, 3 mg/kg), 481 ng/mL. The half-life (usually the time needed for the level to fall by half in the phase considered) in data set [2] (dog, in vivo, iv, 1 mg/kg) is 22.2 h; in data set [2] (dog, in vivo, po, 2 mg/kg) it was 11.8 h; in data set [3] (rat, plasma, iv, 3 mg/kg) it was 5.8 h; in data set [3] (rat, plasma, po, 3 mg/kg), 6.1 h. Also, the Vd/F – broadly, the apparent distribution volume after extravascular dosing – turned out to be 0.9 L/kg in data set [2] (dog, in vivo, po, 2 mg/kg) and 3.3 L/kg in data set [3] (rat, plasma, po, 3 mg/kg). The tmax turned out to be 0.67 h in data set [2] (dog, in vivo, po, 2 mg/kg) and 6 h in data set [3] (rat, plasma, po, 3 mg/kg). Moreover, the “2 hr brain concentration” value in data set [3] (setting [6]) is reported as 79.6 ng · g. Also, in data set [3] (setting [6]), the “2 hr plasma concentration” value was 790.3 ng/mL. Further, the Kp (as a rule, the ratio of the level in a tissue or fluid to that in plasma or blood) at 2 h in data set [3] (rat, brain/plasma, iv) is 0.1.
In the case of `COc1ccc(C(C)NC(=O)N(C)C2CCN(C)CC2(C)C)c(Cl)c1Cl` (centres unmarked) [free base, 3-(1-(2,3-dichloro-4-methoxyphenyl)ethyl)-1-methyl-1-(1,3,3-trimethylpiperidin-4-yl)urea], in the data set “Water solubility testing”, the solubility (usually the concentration that dissolves in the medium under given conditions) is below 2000 µg/mL.
